Source: ChEMBL document CHEMBL1909046, “DrugMatrix in vitro pharmacology data”

Columns and labels:
Glycine receptor = Glycine receptor (Rattus norvegicus, UniProt P22771+P24524+P07727+P20781); format: cell membranes, Wistar, Spinal cord, Membrane; further: in other assays of this panel Not Active means under 50% inhibition at 10 µM
[1] = biological target: Vascular endothelial growth factor receptor 1 (Homo sapiens, UniProt P17948); format: cell-based; conditions: huvec; further: in other assays of this panel Not Active means under 50% inhibition at 10 µM
Vascular endothelial growth factor receptor 1, sequence (P17948 whole entry): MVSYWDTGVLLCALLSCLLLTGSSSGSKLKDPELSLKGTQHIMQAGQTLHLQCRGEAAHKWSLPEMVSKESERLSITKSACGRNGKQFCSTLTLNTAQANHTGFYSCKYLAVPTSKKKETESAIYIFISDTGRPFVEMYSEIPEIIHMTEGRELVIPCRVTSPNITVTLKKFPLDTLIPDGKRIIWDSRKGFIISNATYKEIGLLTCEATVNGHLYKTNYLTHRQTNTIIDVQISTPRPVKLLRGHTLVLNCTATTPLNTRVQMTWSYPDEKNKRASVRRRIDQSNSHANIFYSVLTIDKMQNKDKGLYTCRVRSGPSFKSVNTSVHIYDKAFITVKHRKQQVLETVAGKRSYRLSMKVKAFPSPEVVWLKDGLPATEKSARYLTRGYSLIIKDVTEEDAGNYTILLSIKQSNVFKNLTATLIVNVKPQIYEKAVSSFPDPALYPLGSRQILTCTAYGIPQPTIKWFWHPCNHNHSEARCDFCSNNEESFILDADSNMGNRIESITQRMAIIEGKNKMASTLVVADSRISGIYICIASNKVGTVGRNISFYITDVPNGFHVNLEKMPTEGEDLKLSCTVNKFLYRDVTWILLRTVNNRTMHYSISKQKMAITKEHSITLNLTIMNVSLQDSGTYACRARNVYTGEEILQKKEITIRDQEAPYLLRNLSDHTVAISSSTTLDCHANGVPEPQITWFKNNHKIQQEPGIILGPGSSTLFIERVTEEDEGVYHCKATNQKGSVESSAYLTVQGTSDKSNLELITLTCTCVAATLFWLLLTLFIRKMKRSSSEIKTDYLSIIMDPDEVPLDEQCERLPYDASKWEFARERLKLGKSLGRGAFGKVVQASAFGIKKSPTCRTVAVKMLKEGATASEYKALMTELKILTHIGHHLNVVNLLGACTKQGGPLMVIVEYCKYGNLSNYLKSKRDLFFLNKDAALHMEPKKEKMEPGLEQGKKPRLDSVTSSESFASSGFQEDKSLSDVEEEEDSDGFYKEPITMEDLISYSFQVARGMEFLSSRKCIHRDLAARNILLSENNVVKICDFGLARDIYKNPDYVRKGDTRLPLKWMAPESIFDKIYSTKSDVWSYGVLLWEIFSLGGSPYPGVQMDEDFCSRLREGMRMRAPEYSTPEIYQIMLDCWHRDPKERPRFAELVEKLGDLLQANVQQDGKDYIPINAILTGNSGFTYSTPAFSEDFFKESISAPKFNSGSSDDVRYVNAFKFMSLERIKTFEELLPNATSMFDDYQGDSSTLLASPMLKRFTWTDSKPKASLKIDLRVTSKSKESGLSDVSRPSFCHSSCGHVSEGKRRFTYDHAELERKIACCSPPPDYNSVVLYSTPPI

[2] = DRUGMATRIX: Glutamate, AMPA radioligand binding (ligand: [3H] AMPA); format: cell membranes, Rattus norvegicus, Wistar, Cerebral cortex, Membrane; conditions: Not Active = under 50% inhibition at 10 µM
[3] = biological target: Receptor tyrosine-protein kinase erbB-2 (Homo sapiens, UniProt P04626); assay: biochemical; format: cell-based, Insect cells; conditions: insect cells;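 further: inhibition of HER2 kinase enzyme activity, measured with Poly(Glu:Tyr) as the phosphorylation substrate; in other assays of this panel Not Active means under 50% inhibition at 10 µM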
Receptor tyrosine-protein kinase erbB-2, sequence (P04626 whole entry): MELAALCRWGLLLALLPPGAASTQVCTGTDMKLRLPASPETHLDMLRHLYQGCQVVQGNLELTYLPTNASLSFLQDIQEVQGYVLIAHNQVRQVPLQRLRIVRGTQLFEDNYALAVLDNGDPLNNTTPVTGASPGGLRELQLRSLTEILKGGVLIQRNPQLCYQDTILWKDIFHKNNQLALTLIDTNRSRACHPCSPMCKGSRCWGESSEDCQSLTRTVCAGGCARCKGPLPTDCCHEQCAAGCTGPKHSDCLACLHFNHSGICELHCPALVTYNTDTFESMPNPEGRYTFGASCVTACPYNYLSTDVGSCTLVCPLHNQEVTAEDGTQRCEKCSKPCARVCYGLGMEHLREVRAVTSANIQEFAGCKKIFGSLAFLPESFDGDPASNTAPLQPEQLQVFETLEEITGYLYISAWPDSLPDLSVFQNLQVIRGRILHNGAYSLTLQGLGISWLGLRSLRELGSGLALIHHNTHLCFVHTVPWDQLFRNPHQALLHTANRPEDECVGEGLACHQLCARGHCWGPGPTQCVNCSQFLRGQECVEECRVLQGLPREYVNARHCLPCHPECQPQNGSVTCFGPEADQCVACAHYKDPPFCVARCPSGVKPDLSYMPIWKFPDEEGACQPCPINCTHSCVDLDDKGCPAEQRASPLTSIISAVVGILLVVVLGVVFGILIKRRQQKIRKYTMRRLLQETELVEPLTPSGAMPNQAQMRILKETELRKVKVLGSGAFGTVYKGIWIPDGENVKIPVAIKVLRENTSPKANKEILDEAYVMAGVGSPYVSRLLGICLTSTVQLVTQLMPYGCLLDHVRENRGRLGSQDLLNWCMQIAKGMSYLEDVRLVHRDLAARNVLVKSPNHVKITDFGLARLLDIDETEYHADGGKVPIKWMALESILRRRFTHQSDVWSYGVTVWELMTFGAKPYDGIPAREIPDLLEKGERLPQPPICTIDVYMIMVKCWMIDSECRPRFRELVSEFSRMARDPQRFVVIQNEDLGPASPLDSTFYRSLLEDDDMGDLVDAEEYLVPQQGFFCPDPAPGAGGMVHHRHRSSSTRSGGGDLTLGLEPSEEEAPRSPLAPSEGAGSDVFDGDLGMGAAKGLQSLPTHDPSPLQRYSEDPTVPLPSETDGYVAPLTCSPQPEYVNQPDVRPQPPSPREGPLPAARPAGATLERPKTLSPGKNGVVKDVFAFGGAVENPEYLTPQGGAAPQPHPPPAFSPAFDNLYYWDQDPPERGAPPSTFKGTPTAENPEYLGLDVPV

D(1A) dopamine receptor = D(1A) dopamine receptor (Homo sapiens, UniProt P21728); assay: DRUGMATRIX: Dopamine D1 radioligand binding (ligand: [3H] SCH-23390); format: cell membranes, CHO, Membrane; conditions: cho; Not Active = under 50% inhibition at 10 µM
D(1A) dopamine receptor, sequence (P21728 whole entry): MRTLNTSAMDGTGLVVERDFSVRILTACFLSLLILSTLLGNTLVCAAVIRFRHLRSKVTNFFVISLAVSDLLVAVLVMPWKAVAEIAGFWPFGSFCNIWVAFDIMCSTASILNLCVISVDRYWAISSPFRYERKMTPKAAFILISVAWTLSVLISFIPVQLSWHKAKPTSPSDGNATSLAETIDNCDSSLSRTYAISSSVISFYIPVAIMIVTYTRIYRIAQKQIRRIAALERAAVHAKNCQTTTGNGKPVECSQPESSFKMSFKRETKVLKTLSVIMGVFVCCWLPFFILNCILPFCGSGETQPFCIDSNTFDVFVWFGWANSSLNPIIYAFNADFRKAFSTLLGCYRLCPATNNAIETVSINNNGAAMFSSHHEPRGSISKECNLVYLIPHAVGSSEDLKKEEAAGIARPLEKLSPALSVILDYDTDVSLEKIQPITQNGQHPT

Cytochrome P450 2A6 = biological target: T1, Cytochrome P450 2A6 (Homo sapiens, UniProt P11509); conditions: bti-tn-5b1-4; further: in other assays of this panel Not Active means under 50% inhibition at 10 µM
T1 sequence (P11509 whole entry): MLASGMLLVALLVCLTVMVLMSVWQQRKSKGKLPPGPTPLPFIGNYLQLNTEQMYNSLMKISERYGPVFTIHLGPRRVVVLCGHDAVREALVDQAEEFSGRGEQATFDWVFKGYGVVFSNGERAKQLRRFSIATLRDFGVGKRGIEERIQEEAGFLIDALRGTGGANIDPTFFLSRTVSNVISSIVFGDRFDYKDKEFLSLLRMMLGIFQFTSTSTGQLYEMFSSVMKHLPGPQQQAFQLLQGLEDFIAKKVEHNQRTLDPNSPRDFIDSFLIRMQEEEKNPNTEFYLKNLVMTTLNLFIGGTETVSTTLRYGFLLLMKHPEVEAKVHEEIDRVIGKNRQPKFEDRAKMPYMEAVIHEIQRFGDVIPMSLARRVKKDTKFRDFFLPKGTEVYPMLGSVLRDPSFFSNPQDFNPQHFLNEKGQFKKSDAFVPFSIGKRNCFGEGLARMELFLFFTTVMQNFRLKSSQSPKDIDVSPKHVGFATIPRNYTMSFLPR

[4] = biological target: Mitogen-activated protein kinase 14 (Homo sapiens, UniProt Q16539); parameters: species or system Escherichia coli
Mitogen-activated protein kinase 14, sequence (Q16539 whole entry): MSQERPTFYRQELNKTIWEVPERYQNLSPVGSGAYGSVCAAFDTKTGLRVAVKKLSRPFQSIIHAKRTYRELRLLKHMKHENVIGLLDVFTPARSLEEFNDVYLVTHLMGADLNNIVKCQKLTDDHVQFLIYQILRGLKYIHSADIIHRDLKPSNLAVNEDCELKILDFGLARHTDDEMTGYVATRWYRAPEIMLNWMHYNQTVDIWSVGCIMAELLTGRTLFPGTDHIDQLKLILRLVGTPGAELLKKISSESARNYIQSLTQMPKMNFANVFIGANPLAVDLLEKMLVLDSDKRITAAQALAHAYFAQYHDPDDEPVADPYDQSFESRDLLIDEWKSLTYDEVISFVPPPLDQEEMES

Estrogen receptor = biological target: T2, Estrogen receptor (Homo sapiens, UniProt P03372); conditions: sf9; further: in other assays of this panel Not Active means under 50% inhibition at 10 µM
T2 sequence (P03372 whole entry): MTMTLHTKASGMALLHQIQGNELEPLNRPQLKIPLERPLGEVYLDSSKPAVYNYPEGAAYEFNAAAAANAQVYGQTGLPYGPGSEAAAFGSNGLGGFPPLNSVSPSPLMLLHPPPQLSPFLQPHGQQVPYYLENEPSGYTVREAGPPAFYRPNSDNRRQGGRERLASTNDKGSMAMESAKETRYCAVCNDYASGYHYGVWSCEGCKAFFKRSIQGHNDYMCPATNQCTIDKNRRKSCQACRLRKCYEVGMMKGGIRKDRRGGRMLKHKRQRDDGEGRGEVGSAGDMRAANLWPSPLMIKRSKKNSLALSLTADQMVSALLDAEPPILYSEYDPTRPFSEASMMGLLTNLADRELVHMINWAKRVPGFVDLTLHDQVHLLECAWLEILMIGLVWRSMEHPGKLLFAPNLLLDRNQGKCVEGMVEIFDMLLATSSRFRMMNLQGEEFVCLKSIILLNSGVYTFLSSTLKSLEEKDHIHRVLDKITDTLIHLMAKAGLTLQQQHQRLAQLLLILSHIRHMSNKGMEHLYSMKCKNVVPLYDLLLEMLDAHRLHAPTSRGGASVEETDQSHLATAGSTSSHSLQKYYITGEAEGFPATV

[5] = DRUGMATRIX: beta-Lactamase enzyme inhibition (substrate: Nitrocefin); parameters: species or system Bacillus cereus; conditions: Not Active = under 50% inhibition at 10 µM
Neutrophil elastase = biological target: T3, Neutrophil elastase (Homo sapiens, UniProt P08246); format: tissue-based
T3 sequence (P08246 whole entry): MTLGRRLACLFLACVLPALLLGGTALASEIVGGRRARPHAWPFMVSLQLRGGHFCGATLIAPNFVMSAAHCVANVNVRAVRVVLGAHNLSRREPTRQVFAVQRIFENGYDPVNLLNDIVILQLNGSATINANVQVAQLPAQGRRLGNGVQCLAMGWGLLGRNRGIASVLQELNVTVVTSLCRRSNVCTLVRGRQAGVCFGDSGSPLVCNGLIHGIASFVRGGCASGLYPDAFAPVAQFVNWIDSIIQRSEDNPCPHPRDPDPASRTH

[6] = biological target: Kappa-type opioid receptor (Homo sapiens, UniProt P41145); assay: DRUGMATRIX: Opiate kappa (OP2, KOP) radioligand binding (ligand: [3H] Diprenorphine); format: cell membranes, HEK293, Membrane; conditions: hek293; Not Active = under 50% inhibition at 10 µM
Kappa-type opioid receptor, sequence (P41145 whole entry): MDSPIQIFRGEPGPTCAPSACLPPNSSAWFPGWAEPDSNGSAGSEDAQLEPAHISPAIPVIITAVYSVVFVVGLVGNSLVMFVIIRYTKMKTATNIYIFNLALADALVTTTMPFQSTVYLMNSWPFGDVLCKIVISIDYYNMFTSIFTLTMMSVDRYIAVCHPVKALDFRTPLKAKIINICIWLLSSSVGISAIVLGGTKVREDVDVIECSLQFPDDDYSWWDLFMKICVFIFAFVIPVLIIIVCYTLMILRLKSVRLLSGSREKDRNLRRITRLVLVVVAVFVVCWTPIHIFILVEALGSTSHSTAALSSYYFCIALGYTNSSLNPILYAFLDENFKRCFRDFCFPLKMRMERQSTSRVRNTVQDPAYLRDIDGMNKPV

[7] = biological target: T4, Vasoactive intestinal polypeptide receptor 1 (Homo sapiens, UniProt P32241); format: cell membranes, Membrane; conditions: ht-29; further: in other assays of this panel Not Active means under 50% inhibition at 10 µM
T4 sequence (P32241 whole entry): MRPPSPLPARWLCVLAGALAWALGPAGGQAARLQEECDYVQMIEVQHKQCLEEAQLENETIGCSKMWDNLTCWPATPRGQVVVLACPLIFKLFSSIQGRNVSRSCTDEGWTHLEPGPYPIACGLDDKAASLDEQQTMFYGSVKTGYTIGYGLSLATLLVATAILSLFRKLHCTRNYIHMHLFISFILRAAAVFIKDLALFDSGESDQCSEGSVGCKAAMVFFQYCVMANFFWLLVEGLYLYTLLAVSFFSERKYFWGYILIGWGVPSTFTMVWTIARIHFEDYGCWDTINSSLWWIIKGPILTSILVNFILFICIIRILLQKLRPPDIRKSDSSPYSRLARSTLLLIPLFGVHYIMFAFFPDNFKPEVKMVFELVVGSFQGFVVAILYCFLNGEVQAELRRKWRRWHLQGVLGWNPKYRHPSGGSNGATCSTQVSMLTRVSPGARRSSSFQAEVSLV

COc1ccc2cc(CC(=O)O)ccc2c1
Not Active: IC50 (Glycine receptor) | IC50 [1] | IC50 [2] | Ki [2] | IC50 [3] | IC50 (D(1A) dopamine receptor) | IC50 (Cytochrome P450 2A6) | Ki (Cytochrome P450 2A6) | IC50 [4] | IC50 (Estrogen receptor) | IC50 [5] | Ki [5] | IC50 (Neutrophil elastase) | IC50 [6] | IC50 [7]

CC=CC(=O)N(CC)c1ccccc1C
Not Active: IC50 (Glycine receptor) | IC50 [1] | IC50 [2] | Ki [2] | IC50 [3] | IC50 (D(1A) dopamine receptor) | IC50 (Cytochrome P450 2A6) | Ki (Cytochrome P450 2A6) | IC50 [4] | IC50 (Estrogen receptor) | IC50 [5] | Ki [5] | IC50 (Neutrophil elastase) | IC50 [6] | IC50 [7]

C=C1C(=O)O[C@@H]2C3O[C@]3(C)CC/C=C(\C)CC[C@@H]12 (stereo partly specified)
Not Active: IC50 (Glycine receptor) | IC50 [1] | IC50 [2] | Ki [2] | IC50 [3] | IC50 (D(1A) dopamine receptor) | IC50 (Cytochrome P450 2A6) | Ki (Cytochrome P450 2A6) | IC50 [4] | IC50 (Estrogen receptor) | IC50 [5] | Ki [5] | IC50 (Neutrophil elastase) | IC50 [6] | IC50 [7]

CC(/C=C1\SC(=S)N(CC(=O)O)C1=O)=C\c1ccccc1
Not Active: IC50 (Glycine receptor) | IC50 [1] | IC50 [2] | Ki [2] | IC50 [3] | IC50 (D(1A) dopamine receptor) | IC50 (Cytochrome P450 2A6) | Ki (Cytochrome P450 2A6) | IC50 [4] | IC50 (Estrogen receptor) | IC50 [5] | Ki [5] | IC50 (Neutrophil elastase) | IC50 [6] | IC50 [7]

O=c1cc(-c2ccccc2)oc2c1ccc1ccccc12 [ALPHA-NAPHTHOFLAVONE]
Not Active: IC50 (Glycine receptor) | IC50 [1] | IC50 [2] | Ki [2] | IC50 [3] | IC50 (D(1A) dopamine receptor) | IC50 (Cytochrome P450 2A6) | Ki (Cytochrome P450 2A6) | IC50 [4] | IC50 (Estrogen receptor) | IC50 [5] | Ki [5] | IC50 (Neutrophil elastase) | IC50 [6] | IC50 [7]

NCC[C@H](O)C(=O)N[C@@H]1C[C@H](N)[C@@H](O[C@H]2O[C@H](CN)[C@@H](O)[C@H](O)[C@H]2O)[C@H](O)[C@H]1O[C@H]1O[C@H](CO)[C@@H](O)[C@H](N)[C@H]1O [AMIKACIN]
Not Active: IC50 (Glycine receptor) | IC50 [1] | IC50 [2] | Ki [2] | IC50 [3] | IC50 (D(1A) dopamine receptor) | IC50 (Cytochrome P450 2A6) | Ki (Cytochrome P450 2A6) | IC50 [4] | IC50 (Estrogen receptor) | IC50 [5] | Ki [5] | IC50 (Neutrophil elastase) | IC50 [6] | IC50 [7]

CCOC(=O)OC(C)OC1=C(C(=O)Nc2ccccn2)N(C)S(=O)(=O)c2ccccc21 (stereo unspecified) [AMPIROXICAM]
Not Active: IC50 (Glycine receptor) | IC50 [1] | IC50 [2] | Ki [2] | IC50 [3] | IC50 (D(1A) dopamine receptor) | IC50 (Cytochrome P450 2A6) | Ki (Cytochrome P450 2A6) | IC50 [4] | IC50 (Estrogen receptor) | IC50 [5] | Ki [5] | IC50 (Neutrophil elastase) | IC50 [6] | IC50 [7]

Cn1cnc([N+](=O)[O-])c1Sc1ncnc2nc[nH]c12 [AZATHIOPRINE]
Not Active: IC50 (Glycine receptor) | IC50 [1] | IC50 [2] | Ki [2] | IC50 [3] | IC50 (D(1A) dopamine receptor) | IC50 (Cytochrome P450 2A6) | Ki (Cytochrome P450 2A6) | IC50 [4] | IC50 (Estrogen receptor) | IC50 [5] | Ki [5] | IC50 (Neutrophil elastase) | IC50 [6] | IC50 [7]

CC1(C)S[C@@H]2[C@H](NC(=O)[C@H](NC(=O)N3CCNC3=O)c3ccccc3)C(=O)N2[C@H]1C(=O)O [AZLOCILLIN]
Not Active: IC50 (Glycine receptor) | IC50 [1] | IC50 [2] | Ki [2] | IC50 [3] | IC50 (D(1A) dopamine receptor) | IC50 (Cytochrome P450 2A6) | Ki (Cytochrome P450 2A6) | IC50 [4] | IC50 (Estrogen receptor) | IC50 [5] | Ki [5] | IC50 (Neutrophil elastase) | IC50 [6] | IC50 [7]

O=C1OCCN1/N=C/c1ccc([N+](=O)[O-])o1 [FURAZOLIDONE]
Not Active: IC50 (Glycine receptor) | IC50 [1] | IC50 [2] | Ki [2] | IC50 [3] | IC50 (D(1A) dopamine receptor) | IC50 [4] | IC50 (Estrogen receptor) | IC50 [5] | Ki [5] | IC50 (Neutrophil elastase) | IC50 [6] | IC50 [7]

NCC(=O)O [GLYCINE]
Not Active: IC50 (Glycine receptor) | IC50 [1] | IC50 [2] | Ki [2] | IC50 [3] | IC50 (D(1A) dopamine receptor) | IC50 [4] | IC50 (Estrogen receptor) | IC50 [5] | Ki [5] | IC50 (Neutrophil elastase) | IC50 [6] | IC50 [7]
